Measured values published in patent US6737383B1, “Herbicidal oxadiazolidines” (priority 1999, dated 2004).

Key:
[1] = system: rice; test: Test B flood test rice; type: in vivo, Oryza sativa
Outline: (§1)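 Read-out is a visual response score from 0 (no effect) to 10 (complete control), assigned by comparison with untreated controls. Treatment was applied at the 2-leaf stage, and plants stayed in the greenhouse for twelve to sixteen days before scoring.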

[2] = system: giant foxtail; test: Test B pre/postemergence giant foxtail; type: in vivo, Setaria faberii
Outline: (§2)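 Herbicidal effect was estimated by eye on a ten-point control scale after plants spent twelve to sixteen days in a greenhouse following soil or foliar treatment. Foliar sprays targeted plants at one to four leaves; all doses were formulated in a non-phytotoxic solvent with surfactant.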

[3] = system: velvetleaf; test: Test B pre/postemergence velvetleaf; type: in vivo, Abutilon theophrasti
Outline: as §2

[4] = system: pigweed; test: Test B pre/postemergence pigweed; type: in vivo, Amaranthus retroflexus
Outline: as §2

[5] = system: soybean; test: Test B pre/postemergence soybean; type: in vivo, Glycine max
Outline: as §2

[6] = system: morningglory; test: Test B pre/postemergence morningglory; type: in vivo, Ipomoea hederacea
Outline: as §2

[7] = system: corn; test: Test B pre/postemergence corn; type: in vivo, Zea mays
Outline: as §2

[8] = system: purple nutsedge; test: Test B pre/postemergence purple nutsedge; type: in vivo, Cyperus rotundus
Outline: as §2

[9] = system: rape; test: Test B pre/postemergence rape; type: in vivo, Brassica napus
Outline: as §2

[10] = system: cocklebur; test: Test B pre/postemergence cocklebur; type: in vivo, Xanthium strumarium
Outline: as §2

[11] = system: duck salad; test: Test B flood test duck salad; type: in vivo, Heteranthera limosa
Outline: as §1

[12] = system: sugar beet; test: Test B pre/postemergence sugar beet; type: in vivo, Beta vulgaris
Outline: as §2

[13] = system: smallflower flatsedge; test: Test B flood test smallflower flatsedge; type: in vivo, Cyperus difformis
Outline: as §1

[14] = system: crabgrass; test: Test B pre/postemergence crabgrass; type: in vivo, Digitaria sanguinalis
Outline: as §2

[15] = system: blackgrass; test: Test B pre/postemergence blackgrass; type: in vivo, Alopecurus myosuroides
Outline: as §2

[16] = system: wheat; test: Test B pre/postemergence wheat; type: in vivo, Triticum aestivum
Outline: as §2

[17] = Pre-emergence, Rate 1000 g/ha, scale 0 to 10 (0 no effect, 10 complete control)
[18] = Rate 125 g/ha, under heading Pre-emergence, flood test species, visual evaluation after twelve to sixteen days
[19] = Rate 250 g/ha, Pre-emergence (flood test species), scale 0 to 10, 0 is no effect, 10 is complete control
[20] = Rate 500 g/ha, Pre-emergence section of Table B, 0 to 10 scale (0 no effect, 10 complete control)
[21] = Postemergence, Rate 125 g/ha, scale of 0 to 10 where 0 is no effect and 10 is complete control
[22] = Postemergence, Rate 250 g/ha, scale of 0 to 10, 0 is no effect, 10 is complete control
[23] = Postemergence, Rate 500 g/ha, scale of 0 to 10 where 0 is no effect and 10 is complete control
[24] = Postemergence, Rate 1000 g/ha, scale 0 to 10 (0 no effect, 10 complete control)
[25] = Preemergence, Rate 125 g/ha, scale of 0 to 10 where 0 is no effect and 10 is complete control
[26] = Preemergence, Rate 250 g/ha, scale 0 to 10 (0 no effect, 10 complete control)
[27] = Preemergence, Rate 500 g/ha, scale of 0 to 10 where 0 is no effect and 10 is complete control
[28] = Rate 1000 g/ha, Preemergence, scale 0 to 10 (0 no effect, 10 complete control)

Structure (SMILES): COC(=O)C(C)n1c(=O)on(C(=O)N(c2ccc(F)cc2)C(C)C)c1=O (stereo not shown) [Compound 616]
- Rice plant response rating [1, 17]: 0
- Rice plant response rating (0 to 10 scale, 0 is no effect, 10 is complete control) [1, 18]: 0
- Rice plant response rating [1, 19]: 0
- Rice plant response rating [1, 20]: 0
- Plant response rating, Giant foxtail [2, 21]: 3
- Giant foxtail plant response rating [2, 22]: 3
- Plant response rating, Giant foxtail [2, 23]: 6
- Giant foxtail plant response rating [2, 24]: 7
- Giant foxtail plant response rating [2, 25]: 1
- Plant response rating, Giant foxtail [2, 26]: 7
- Plant response rating, Giant foxtail [2, 27]: 5
- Plant response rating, Giant foxtail [2, 28]: 9
- Plant response rating, Velvetleaf [3, 21]: 0
- Velvetleaf plant response rating [3, 22]: 0
- Plant response rating, Velvetleaf [3, 23]: 1
- Velvetleaf plant response rating [3, 24]: 1
- Velvetleaf plant response rating [3, 25]: 0
- Plant response rating, Velvetleaf [3, 26]: 0
- Plant response rating, Velvetleaf [3, 27]: 4
- Plant response rating, Velvetleaf [3, 28]: 5
- Plant response rating, Redroot pigweed [4, 21]: 0
- Redroot pigweed plant response rating [4, 22]: 0
- Plant response rating, Redroot pigweed [4, 23]: 1
- Redroot pigweed plant response rating [4, 24]: 3
- Redroot pigweed plant response rating [4, 25]: 1
- Plant response rating, Redroot pigweed [4, 26]: 8
- Plant response rating, Redroot pigweed [4, 27]: 10
- Plant response rating, Redroot pigweed [4, 28]: 10
- Soybean plant response rating [5, 22]: 4
- Plant response rating, Soybean [5, 23]: 4
- Soybean plant response rating [5, 24]: 4
- Soybean plant response rating [5, 25]: 0
- Plant response rating, Soybean [5, 26]: 0
- Plant response rating, Soybean [5, 27]: 0
- Plant response rating, Soybean [5, 28]: 5
- Plant response rating, Morningglory [6, 21]: 0
- Morningglory plant response rating [6, 22]: 4
- Plant response rating, Morningglory [6, 23]: 10
- Morningglory plant response rating [6, 24]: 10
- Morningglory plant response rating [6, 25]: 0
- Plant response rating, Morningglory [6, 26]: 0
- Plant response rating, Morningglory [6, 27]: 0
- Plant response rating, Morningglory [6, 28]: 0
- Plant response rating, Corn [7, 21]: 0
- Corn plant response rating [7, 22]: 0
- Plant response rating, Corn [7, 23]: 0
- Corn plant response rating [7, 24]: 0
- Corn plant response rating [7, 25]: 0
- Plant response rating, Corn [7, 26]: 0
- Plant response rating, Corn [7, 27]: 0
- Plant response rating, Corn [7, 28]: 2
- Plant response rating, Nutsedge [8, 21]: 0
- Nutsedge plant response rating [8, 22]: 0
- Plant response rating, Nutsedge [8, 23]: 0
- Plant response rating, Nutsedge [8, 26]: 0
- Plant response rating, Nutsedge [8, 27]: 0
- Plant response rating, Nutsedge [8, 28]: 0
- Plant response rating, Rape [9, 21]: 0
- Rape plant response rating [9, 22]: 0
- Plant response rating, Rape [9, 23]: 0
- Rape plant response rating [9, 24]: 3
- Rape plant response rating [9, 25]: 0
- Plant response rating, Rape [9, 26]: 0
- Plant response rating, Rape [9, 27]: 3
- Plant response rating, Rape [9, 28]: 6
- Plant response rating, Cocklebur [10, 21]: 0
- Cocklebur plant response rating [10, 22]: 0
- Plant response rating, Cocklebur [10, 23]: 0
- Cocklebur plant response rating [10, 24]: 3
- Cocklebur plant response rating [10, 25]: 0
- Plant response rating, Cocklebur [10, 26]: 0
- Plant response rating, Cocklebur [10, 27]: 0
- Plant response rating, Cocklebur [10, 28]: 0
- Ducksalad plant response rating [11, 17]: 0
- Ducksalad plant response rating (0 to 10 scale, 0 is no effect, 10 is complete control) [11, 18]: 0
- Ducksalad plant response rating [11, 19]: 0
- Ducksalad plant response rating [11, 20]: 0
- Plant response rating, Sugarbeets [12, 21]: 0
- Sugarbeets plant response rating [12, 22]: 0
- Plant response rating, Sugarbeets [12, 23]: 2
- Sugarbeets plant response rating [12, 24]: 2
- Sugarbeets plant response rating [12, 25]: 0
- Plant response rating, Sugarbeets [12, 26]: 0
- Plant response rating, Sugarbeets [12, 27]: 1
- Plant response rating, Sugarbeets [12, 28]: 7
- S. Flatsedge plant response rating [13, 17]: 0
- S. Flatsedge plant response rating (0 to 10 scale, 0 is no effect, 10 is complete control) [13, 18]: 0
- S. Flatsedge plant response rating [13, 19]: 0
- S. Flatsedge plant response rating [13, 20]: 0
- Plant response rating, Crabgrass [14, 21]: 2
- Crabgrass plant response rating [14, 22]: 4
- Plant response rating, Crabgrass [14, 23]: 7
- Crabgrass plant response rating [14, 24]: 8
- Crabgrass plant response rating [14, 25]: 0
- Plant response rating, Crabgrass [14, 26]: 0
- Plant response rating, Crabgrass [14, 27]: 1
- Plant response rating, Crabgrass [14, 28]: 6
- Plant response rating, Blackgrass [15, 21]: 0
- Blackgrass plant response rating [15, 22]: 0
- Plant response rating, Blackgrass [15, 23]: 5
- Blackgrass plant response rating [15, 25]: 0
- Plant response rating, Blackgrass [15, 26]: 4
- Blackgrass plant response rating [15, 27]: 6
- Plant response rating, Blackgrass [15, 28]: 8
- Plant response rating, Wheat [16, 21]: 0
- Wheat plant response rating [16, 22]: 0
- Plant response rating, Wheat [16, 23]: 0
- Wheat plant response rating [16, 24]: 0
- Wheat plant response rating [16, 25]: 0
- Plant response rating, Wheat [16, 26]: 0
- Plant response rating, Wheat [16, 27]: 0
- Plant response rating, Wheat [16, 28]: 0
